Data published in PubChem BioAssay AID743394 (Broad Institute, 2014).
The source made the active and inactive calls.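 Rule for the calls: active = 40% activation versus positive control reached by fitted dose-response curve at or below highest valid tested dose; inconclusive = poor fit quality, or flat fit with activation between 30% and 70%; inactive = the rest.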

Assay: inactive X chromosome reactivation in XiGFP fibroblasts, dose response, imaging, 68-5-11 mouse fibroblasts, GFP, cherry-pick (AID 743394);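 note: sensitizer 5-aza-dC present in the wells at 0.5 mM final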
Details: 68-5-11 mouse fibroblast XiGFP reporter, % GFP-positive imaging, 3 d; at 19.5 µM (top of the series)

Row | SMILES | activation
1 | COP(=S)(OC)Oc1ccc(Sc2ccc(OP(=S)(OC)OC)cc2)cc1 | 0.028% (inactive)
2 | O=[N+]([O-])c1ccc(O)c([N+](=O)[O-])c1 | -0.014% (inactive)

Same assay, conditions: 68-5-11 mouse fibroblast XiGFP reporter, % GFP-positive imaging, 3 d; at 19.5 µM (top of the series); cells co-treated with 5-aza-dC sensitizer; scaled: neutral wells 0, ellipticine wells 100

Row | SMILES | activation
3 | CC1CN(Cc2c(O)ccc3c2oc(=O)c2ccccc23)CC(C)O1 (stereo not drawn) | -0.012% (inactive)
4 | COc1ccc(C2C(=O)c3ccccc3C2=Nc2ccc(Br)cc2)cc1 (stereo not drawn) | -0.066% (inactive)
5 | O=c1c(Cl)c(Cl)cnn1Cc1nnc(-c2ccccc2Br)o1 | -0.053% (inactive)
6 | CC1CCCC(NC(=O)CSc2cccc[n+]2[O-])C1C (stereo not drawn) | 0.125% (inactive)
7 | CC(C)c1cc(C(=O)N/N=C/c2cccnc2)cs1 | 0.54% (inactive)
8 | C[C@@H]1CCCCO[C@@H](CN(C)C(=O)Nc2ccc(C(F)(F)F)cc2)[C@@H](C)CN([C@H](C)CO)C(=O)c2cc(NS(=O)(=O)c3ccc(F)cc3)ccc2O1 | -0.031% (inactive)
9 | COc1ccc(OC)c(/C=C/c2ccc3cccc(O)c3n2)c1 | -0.024% (inactive)
10 | C[C@@H]1CN([C@H](C)CO)C(=O)c2cc(NC(=O)Nc3ccc4c(c3)OCO4)ccc2O[C@@H](C)CCCCO[C@@H]1CN(C)C(=O)Cc1ccccc1 | 0.577% (inactive)
11 | COc1ccc(C2=C(c3ccccc3)OC(OC)c3cc(F)ccc32)cn1 (stereo not drawn) | 0.027% (inactive)
12 | COc1ccccc1-c1cc(C(=O)N2CCCc3ccccc32)no1 | 0.179% (inactive)
13 | CCc1ccc(NS(=O)(=O)c2cccc3nonc23)cc1 | -0.121% (inactive)
14 | CC(=O)Nc1ccc(S(=O)(=O)N(C)c2ccc(OCC(=O)NCCc3ccccc3F)cc2)cc1 | -0.07% (inactive)
15 | CCOC(=O)Cc1c(C)[nH]n(-c2ccccc2)c1=O | 0.085% (inactive)
16 | Cc1ccc(Cl)cc1NC(=O)CCC(=O)O | -0.002% (inactive)
17 | COc1ccccc1N1CCN(C(=O)CN2C(=O)c3cccc4cccc(c34)C2=O)CC1 | 0.077% (inactive)
18 | CC[C@]12c3[nH]c4cc(CCC(=O)N(C)C)ccc4c3CCN1C(=O)[C@@H](CC(=O)NCCC1=CCCCC1)C[C@@H]2C(=O)N1CCN(C(=O)c2ccco2)CC1 | 0.011% (inactive)
19 | Cc1ccc(C(=O)NCc2ccccn2)cc1NC1=NC2CS(=O)(=O)CC2S1 (stereo not drawn) | 0.151% (inactive)
20 | C[C@@H]1CN([C@H](C)CO)C(=O)c2cc(NS(=O)(=O)c3ccccc3)ccc2O[C@@H](C)CCCCO[C@@H]1CN(C)Cc1ccc2c(c1)OCO2 | 0% (inactive)
21 | Brc1cccc(CNCC2CCCO2)c1 (stereo not drawn) | 0.116% (inactive)
22 | COc1ccc(OC)c(NC(=O)Nc2ccc3[nH]ccc3c2)c1 | -0.035% (inactive)
23 | O=C(Nc1c(F)cccc1F)C(c1ccccc1)c1ccccc1 | 0.013% (inactive)
24 | CS(=O)(=O)c1ccc(S(=O)CC(=O)OCc2ccccc2)c([N+](=O)[O-])c1 (stereo not drawn) | -0.127% (inactive)
25 | CCCOc1ccc(C(=O)Nc2ccc(CN3CCOCC3)cc2)cc1 | -0.053% (inactive)
26 | COc1cccc(CNC(=O)c2cc(S(=O)(=O)N3CCCC3)cn2C)c1 | 0.095% (inactive)
27 | C[C@H](CO)N1C[C@H](C)[C@H](CN(C)C(=O)Nc2ccc(F)cc2)Oc2ncc(C#Cc3cccc(F)c3)cc2C1=O | -0.031% (inactive)
28 | CC(=O)N(C)C[C@@H]1Oc2ncc(-c3cccnc3)cc2C(=O)N([C@@H](C)CO)C[C@@H]1C | 0.082% (inactive)
29 | C[C@H](NC(=O)C[C@H]1CC[C@@H](NC(=O)Cc2ccccn2)[C@@H](CO)O1)c1ccccc1 | 0.043% (inactive)

Row | SMILES | activation
30 | O=C(O)c1cccnc1C(=O)N1CCc2c([nH]c3ccccc23)C1C(F)(F)F (stereo not drawn) | 0.006% (inactive)
31 | CCN(CC)CCCNC1=C(Cl)C(=O)c2ccccc2C1=O | -0.032% (inactive)
32 | COc1cccc(CNC(=O)CNC(=S)N(Cc2ccccc2)Cc2ccccc2F)c1 | -0.015% (inactive)
33 | COc1ccc(N(CC(=O)Nc2nccs2)S(=O)(=O)c2c(C)[nH]c(=O)[nH]c2=O)cc1 | 0.033% (inactive)
34 | Cc1ncsc1C(=O)Nc1cccc(C(F)(F)F)c1 | -0.075% (inactive)
35 | C[C@H]1CN([C@@H](C)CO)C(=O)c2ccccc2-c2ccccc2CO[C@H]1CN(C)C(=O)[C@@H](Cc1ccccc1)N(C)C | 0% (inactive)
36 | Cc1nnc(-c2ccc(N3CCCCCC3)c([N+](=O)[O-])c2)o1 | -0.007% (inactive)
37 | CC(=O)Nc1ccc(NS(=O)(=O)c2ccc3c(c2)oc(=O)n3C)cc1 | 5.23% (inactive)
38 | CCn1nc(C)cc1-c1nnc(Sc2ncc([N+](=O)[O-])s2)n1C | -0.032% (inactive)
39 | Cc1cc(C(=O)Nc2ccc(Cl)c(S(=O)(=O)N3CCOCC3)c2)c2ccccc2n1 | -0.053% (inactive)
40 | O=C(N/N=C/c1ccc(Br)s1)c1ccc([N+](=O)[O-])cc1 | 1.59% (inactive)
41 | COc1ccccc1NC(=S)N(CCCN1CCOCC1)Cc1cccs1 | -0.076% (inactive)
42 | COc1ccc(NC(=O)COc2ccc(C)c(C)c2)cc1S(=O)(=O)N1CCCCC1 | 0.164% (inactive)
43 | Cc1ccc(N(C)C(=O)C2CCN(S(=O)(=O)c3ccc4c(c3)oc(=O)n4C)CC2)cc1 | 0.016% (inactive)
44 | COc1ccc(S(=O)(=O)Nc2ccc3c(c2)C(=O)N([C@@H](C)CO)C[C@H](C)[C@H](CN(C)C(=O)CCCN(C)C)OCCCC[C@H](C)O3)cc1 | 0.053% (inactive)
45 | Cc1ccc(C)c(CSC2=NN3CCCC(=O)N=C3S2)c1 | -0.017% (inactive)
46 | CCC(C)c1nc2ccsc2c(N2CCOC2=O)c1-c1ccccc1 (stereo not drawn) | -0.032% (inactive)
47 | O=C(NCc1ccccc1)c1ccccc1Br | 0.035% (inactive)
48 | Cc1[nH]c2ccccc2c1/C=N/Nc1nc2ccccc2[nH]1 | -0.075% (inactive)
49 | COC(=O)c1ccc(-n2c(C)cc(C(=O)COC(=O)C3=COCCO3)c2C)cc1 | -0.033% (inactive)
50 | COc1ccccc1/C=C/C(=O)OCCCN(C)C | 0.018% (inactive)
51 | Nc1[nH]c(=O)nc(Nc2ccccc2)c1N=O | -0.037% (inactive)
52 | CCCN(C)C[C@@H]1OCc2cnnn2CCCC(=O)N([C@H](C)CO)C[C@H]1C | 1.19% (inactive)
53 | CCNC(=O)C[C@@H]1CC[C@H]2[C@@H](COC[C@@H](O)CN2C(=O)C2CCCC2)O1 | -0.016% (inactive)
54 | COc1ccc2c3c([nH]c2c1)[C@@H](CO)N(Cc1ccccc1F)CC31CN(C(=O)C2CCOCC2)C1 | 0.046% (inactive)
55 | COc1cc(C(=O)NC(=S)Nc2cccc3nc(C)ccc23)cc(OC)c1OC | 1% (inactive)
56 | Oc1ccc(Br)cc1C=Nc1ccc2c3c(cccc13)CC2 | 0.056% (inactive)

Row | SMILES | activation
57 | COc1cc(/C=N/Nc2nc(N3CCCC3)nc(N3CCCC3)n2)ccc1OCc1ccccc1F | 0.149% (inactive)
58 | NS(=O)(=O)c1cccc(NC(=O)COC(=O)Cc2ccc(S(=O)(=O)N3CCOCC3)s2)c1 | 0.056% (inactive)
59 | CCC(C(=O)Nc1cc(OC)c(NC(=O)c2ccccc2)cc1OC)c1ccccc1 (stereo not drawn) | -0.037% (inactive)
60 | Cc1c(Nc2cc(Cl)c3nonc3c2[N+](=O)[O-])c(=O)n(-c2ccccc2)n1C | -0.121% (inactive)
61 | C[C@@H]1CN([C@@H](C)CO)C(=O)c2cc(NS(=O)(=O)c3cn(C)cn3)ccc2O[C@@H](C)CCCCO[C@H]1CN(C)C(=O)c1ccccc1 | 0.016% (inactive)
62 | Cc1cccn2c(=O)c3cc(C(=O)NCc4ccc(F)cc4)c(=N)n(CCCN4CCOCC4)c3nc12 | 0.061% (inactive)
63 | O=C(CSc1nc2ccccc2[nH]1)N/N=C/C=C/c1ccccc1[N+](=O)[O-] | 0.165% (inactive)
64 | O=C(OCc1cccc(F)c1)c1ccc2c(=O)n3c(nc2c1)CCC3 | 1.02% (inactive)
65 | O=C(CC1CC1)N1CC(=O)N2[C@@H](CO)[C@H](c3ccc(C#Cc4ccc(F)cc4)cc3)[C@@H]2C1 | -0.031% (inactive)
66 | C/C=C/c1ccc(C2[C@H]3CNC[C@@H]2N3Cc2cc(-c3ccccc3)on2)cc1 (stereo partly drawn) | -0.031% (inactive)
67 | CC1CC(C)CN(C(=O)CSCC(=O)Nc2nc(-c3cccs3)cs2)C1 (stereo not drawn) | -0.047% (inactive)
68 | CC(=O)C1=NN(c2ccc(Cl)cc2)C(c2ccc3c(c2)OCO3)N(C(C)=O)N1C (stereo not drawn) | -0.032% (inactive)
69 | CCc1ccc(C(=O)NNc2ccc(S(N)(=O)=O)cc2)cc1 | -0.007% (inactive)
70 | Cc1n[nH]c(=S)n(/N=C/c2cccc([N+](=O)[O-])c2)c1=O | -0.091% (inactive)
71 | COc1ccc(C(=O)N/N=C/c2cc(Br)ccc2O)cc1OC | -0.037% (inactive)
72 | O=C(CC1C(=O)Nc2ccccc2N1CC(=O)N1CCCC1)Nc1ccc(Br)cc1 (stereo not drawn) | -0.001% (inactive)
73 | COc1ccc(CN(C)C[C@H]2OCCCC[C@H](C)Oc3ccc(NC(=O)Nc4ccc(F)cc4)cc3C(=O)N([C@H](C)CO)C[C@H]2C)cc1 | 0.981% (inactive)
74 | COC(=O)c1ccc(NC(=O)c2nc(S(=O)(=O)Cc3cccc(C)c3)ncc2Cl)cc1 | -0.008% (inactive)
75 | CCC(=O)N1CC(=O)N2[C@@H](CO)[C@@H](c3ccc(-c4ccccc4F)cc3)[C@@H]2C1 | 0% (inactive)
76 | CO[C@H]1CN(C)C(=O)c2ccc(NC(=O)C3CCCCC3)cc2OC[C@H](C)NC[C@@H]1C | 0.017% (inactive)
77 | CC(=O)c1c(COC(=O)c2ccccc2Cl)nc2ccccc2[n+]1[O-] | 0.188% (inactive)
78 | O=C(NCCOc1ccccc1)c1cc([N+](=O)[O-])ccc1N1CCOCC1 | 0.193% (inactive)
79 | CCOc1cccc(/C=N/NC(=S)Nc2cc(S(=O)(=O)N3CCOCC3)ccc2N2CCOCC2)c1O | 6.09% (inactive)
80 | O=C1c2ccc3c4c(ccc(c24)C(=O)N1c1cccc(O)c1)C(=O)N(c1cccc(O)c1)C3=O | -0.037% (inactive)
81 | Cc1ccc(NCc2nnc(SCC(=O)NNC(=O)Cc3ccccc3)n2C)cc1 | 0.012% (inactive)
82 | Cc1ccc(-c2nc(CS(=O)CC(=O)NCCCN3CC(C)CC(C)C3)c(C)o2)cc1 (stereo not drawn) | 0.4% (inactive)

Same assay, conditions: 68-5-11 mouse fibroblast XiGFP reporter, % GFP-positive imaging, 3 d; at 21 µM (top of the series); cells co-treated with 5-aza-dC sensitizer; scaled: neutral wells 0, ellipticine wells 100

Row | SMILES | activation
83 | Cc1ccc(-c2ccccc2[C@@H]2[C@H](C#N)N(S(C)(=O)=O)[C@H]2CO)cc1 | 0.241% (inactive)
